Test results published in US4593017A, “Methods of treating patients using a pharmaceutical preparation containing an α-endorfine fragment” (Akzo N.V., priority 1982, dated 1986).
Where a SMILES comes first, the peptide text is derived from it.

Tests used:
rats = experiment: Apomorphine induced stereotyped sniffing; assay type: in vivo; conditions: for (Stereotyped) sniffing: after 1 h apomorphine 250 μg/kg s.c., tested 20 min later, measured for 4 min
Experimental: Subcutaneous treatment of rats with apomorphine (250 μg/kg) elicits hyperlocomotion and especially stereotyped sniffing behavoir. Increase of this stereotyped sniffing by pretreatment with the drug to be tested in considered to be an indication for dopaminergic activity.
Groups of rats were subcutaneously injected with placebo (0.5 ml saline), (2-9)-α-endorfine (50 μg) or (3-9)-α-endorfine (50 μg) and after 1 h. with apomorphine (250 μg/kg). An additional group of rats received two placebo (0.5 ml saline) injections. Twenty minutes after the last injection the rats were tested in a small open field and the duration of stereotyped sniffing was measured for 4 min.

[1] = test system: AVP (arg-vasopressin) levels of eye plexus plasma; experiment: Vasopressin release: AVP levels of eye plexus plasma (RIA); assay type: in vivo, Female Wistar rats; conditions: 10 μg per rat subcutaneously
Experimental: The effect of (2-9)-α-endorfine on AVP (arg-vasopressin) levels of eye plexus plasma was tested.
Female Wistar rats (140-160 g) were anaesthetized with ether for a strictly controlled period of 45 seconds. Samples of eye plexus blood were taken and stored in cooled plastic tubes to which heparin was added. The tubes were centrifuged at 4° C. in order to obtain the plasma. The immunoreactive AVP was directly measured in 20 μl of eye plexus plasma with the aid of RIA (radio-immuno-assay) methods.
The rats were treated with placebo or with 10 μg of (2-9)-α-endorfine per rat, injected subcutaneously.

[2] = pole-jumping test; delaying extinction of conditioned avoidance behavior; Pharmac. Ther. 16, 67, 1982; cited from earlier work

Structure (SMILES)	(Stereotyped) sniffing (rats; placebo (0.5 ml saline) pretreatment)	AVP levels ([1]; 2 minutes after injection)	AVP levels ([1]; 5 minutes after injection)	AVP levels ([1]; 10 minutes after injection)	(Stereotyped) sniffing (rats; pretreatment 50 μg s.c.)	potentiation of apomorphine-induced stereotyped sniffing (rats; pretreatment 50 μg, apomorphine 250 μg/kg s.c.)	times less active than α-endorfine [2]
CN1CCc2cccc3c2[C@H]1Cc1ccc(O)c(O)c1-3 [apomorphine, reference compound]	121.4 s	–	–	–	–	–	–
CSCC[C@H](NC(=O)[C@H](Cc1ccccc1)NC(=O)CNC(=O)CN)C(=O)N[C@H](C(=O)N[C@@H](CO)C(=O)N[C@@H](CCC(=O)O)C(=O)N[C@@H](CCCCN)C(=O)O)[C@@H](C)O [(2-9)-α-endorfine, H-Gly-Gly-L-Phe-L-Met-L-Thr-L-Ser-L-Glu-L-Lys-OH] (H-GGFMTSEK-OH)	–	667 pg/mL	92 pg/mL	78 pg/mL	158.0 s	potentiated	10 times
